Paper PMC9617638 (Journal of medicinal chemistry, 2019)
Several values for one entry are separate records, joined by “and”; a condition that tells them apart may be missing. Equal entries are not always repeated. Entries after “also recorded” stand apart in the source; their conditions may differ.

Tests used:
DAT Y156F mutant = DAT Y156F mutant (Homo sapiens, UniProt Q01959, Y156F); assay type: binding; settings: read-out: Y156F Ki, COS7 cells, mean [SE interval]
σ1 receptor = σ1 receptor (Cavia porcellus, UniProt Q60492); experiment: σ1 receptor binding assay, [3H]; set-up: species or system guinea pig; settings: for selectivity for σ1R over DAT and SERT (in words): σ1R versus monoamine transporters
Sequence of σ1 receptor (Q60492 whole entry): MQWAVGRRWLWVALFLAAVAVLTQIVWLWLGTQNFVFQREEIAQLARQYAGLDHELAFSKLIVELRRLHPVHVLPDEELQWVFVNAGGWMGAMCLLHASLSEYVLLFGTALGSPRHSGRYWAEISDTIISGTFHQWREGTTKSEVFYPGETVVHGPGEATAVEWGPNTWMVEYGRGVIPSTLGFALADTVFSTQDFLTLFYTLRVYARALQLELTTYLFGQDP

[1] = Metabolic stability in human liver microsomes; assay type: in vitro ADME
[2] = Off-target binding interactions; settings: concentration of 100 nM
mouse locomotion = experiment: Locomotor activity in mice; assay type: in vivo; settings: i.p., 2 h session, cocaine 3-30 mg/kg, 14a 1-30 mg/kg, 14b/14c 1-10 mg/kg
SERT = SERT (Rattus norvegicus, UniProt P31652); experiment: SERT binding assay, [3H]citalopram, rat brain stem membranes; settings: DAT versus SERT Ki
Sequence of SERT (P31652 whole entry): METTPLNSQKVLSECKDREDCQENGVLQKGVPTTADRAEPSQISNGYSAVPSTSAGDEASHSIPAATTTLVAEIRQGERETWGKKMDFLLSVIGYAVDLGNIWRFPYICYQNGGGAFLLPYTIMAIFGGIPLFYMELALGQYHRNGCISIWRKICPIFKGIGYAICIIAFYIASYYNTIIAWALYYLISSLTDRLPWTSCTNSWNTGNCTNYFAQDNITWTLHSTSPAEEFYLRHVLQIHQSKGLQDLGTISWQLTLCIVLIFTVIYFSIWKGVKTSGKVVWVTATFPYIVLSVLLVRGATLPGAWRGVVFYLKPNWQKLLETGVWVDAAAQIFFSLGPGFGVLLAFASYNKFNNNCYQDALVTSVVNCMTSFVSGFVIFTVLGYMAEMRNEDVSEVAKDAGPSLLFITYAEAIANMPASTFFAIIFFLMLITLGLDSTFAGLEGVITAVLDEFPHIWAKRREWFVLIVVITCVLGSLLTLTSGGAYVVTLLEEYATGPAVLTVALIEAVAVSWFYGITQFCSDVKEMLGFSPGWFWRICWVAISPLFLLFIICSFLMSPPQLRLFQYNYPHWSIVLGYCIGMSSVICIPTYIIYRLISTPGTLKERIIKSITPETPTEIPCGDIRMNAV

DAT = DAT (Rattus norvegicus, UniProt P23977); experiment: DAT binding assay, [3H]WIN 35,428, rat striatum membranes; settings: for DAT Ki values (in words): terminal piperazine amine changed to amide
Sequence of DAT (P23977 whole entry): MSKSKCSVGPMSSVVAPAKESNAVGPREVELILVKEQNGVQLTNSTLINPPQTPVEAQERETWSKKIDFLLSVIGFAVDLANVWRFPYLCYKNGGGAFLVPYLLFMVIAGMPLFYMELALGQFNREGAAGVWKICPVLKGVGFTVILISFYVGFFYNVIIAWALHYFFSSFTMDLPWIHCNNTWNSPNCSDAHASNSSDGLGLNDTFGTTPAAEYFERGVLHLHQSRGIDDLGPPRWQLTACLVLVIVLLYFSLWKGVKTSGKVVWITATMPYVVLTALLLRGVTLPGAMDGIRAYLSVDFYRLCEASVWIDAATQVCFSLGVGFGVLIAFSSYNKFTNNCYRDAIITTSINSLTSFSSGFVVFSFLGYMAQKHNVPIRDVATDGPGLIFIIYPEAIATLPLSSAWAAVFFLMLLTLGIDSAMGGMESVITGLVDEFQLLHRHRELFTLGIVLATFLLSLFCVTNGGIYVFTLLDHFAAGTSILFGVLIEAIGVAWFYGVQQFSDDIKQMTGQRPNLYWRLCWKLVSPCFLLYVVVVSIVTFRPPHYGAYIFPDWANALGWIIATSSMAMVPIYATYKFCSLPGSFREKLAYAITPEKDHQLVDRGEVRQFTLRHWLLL

[3] = Phase I metabolic stability in mouse liver microsomes; assay type: in vitro ADME; settings: for phase I metabolic stability (in words): mouse liver microsomes, 60 min; for compound remaining: mouse microsomes fortified with NADPH, 60 min (1 h)
hERG = hERG (Homo sapiens, UniProt Q12809); experiment: hERG current block; assay type: cell-based; settings: hERG IC50 over DAT Ki
Sequence of hERG (Q12809 whole entry): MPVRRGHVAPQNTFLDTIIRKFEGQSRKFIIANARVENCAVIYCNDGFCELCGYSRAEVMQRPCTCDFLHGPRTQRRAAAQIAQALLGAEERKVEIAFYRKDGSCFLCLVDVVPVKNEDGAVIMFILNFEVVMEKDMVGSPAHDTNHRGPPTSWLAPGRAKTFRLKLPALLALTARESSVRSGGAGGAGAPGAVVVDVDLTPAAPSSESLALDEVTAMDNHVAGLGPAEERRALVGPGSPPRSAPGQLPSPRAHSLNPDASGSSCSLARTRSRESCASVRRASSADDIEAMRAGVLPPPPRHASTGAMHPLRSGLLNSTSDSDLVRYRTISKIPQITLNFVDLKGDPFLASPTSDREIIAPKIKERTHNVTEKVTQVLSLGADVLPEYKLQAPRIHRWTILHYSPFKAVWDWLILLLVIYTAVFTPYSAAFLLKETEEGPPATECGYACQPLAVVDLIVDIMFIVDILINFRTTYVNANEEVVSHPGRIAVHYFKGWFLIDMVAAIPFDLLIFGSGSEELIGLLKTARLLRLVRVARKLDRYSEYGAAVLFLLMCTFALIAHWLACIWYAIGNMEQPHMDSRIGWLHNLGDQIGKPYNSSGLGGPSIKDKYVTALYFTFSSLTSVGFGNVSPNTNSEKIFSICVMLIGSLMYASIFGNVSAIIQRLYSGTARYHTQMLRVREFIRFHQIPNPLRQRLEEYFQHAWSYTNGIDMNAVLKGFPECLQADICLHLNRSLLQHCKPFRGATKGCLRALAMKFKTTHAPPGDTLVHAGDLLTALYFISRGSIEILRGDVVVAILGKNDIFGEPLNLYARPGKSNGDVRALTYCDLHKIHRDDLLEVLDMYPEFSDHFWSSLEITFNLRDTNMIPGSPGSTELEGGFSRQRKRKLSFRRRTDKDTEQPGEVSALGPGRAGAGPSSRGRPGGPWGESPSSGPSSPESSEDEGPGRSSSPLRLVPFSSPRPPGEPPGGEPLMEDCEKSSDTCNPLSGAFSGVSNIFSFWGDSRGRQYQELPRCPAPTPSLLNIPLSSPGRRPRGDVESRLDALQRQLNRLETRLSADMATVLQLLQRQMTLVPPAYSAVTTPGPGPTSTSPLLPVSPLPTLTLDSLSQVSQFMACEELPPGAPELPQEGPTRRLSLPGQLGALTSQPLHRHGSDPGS

Sequence of DAT Y156F mutant (Q01959 whole entry Y156F): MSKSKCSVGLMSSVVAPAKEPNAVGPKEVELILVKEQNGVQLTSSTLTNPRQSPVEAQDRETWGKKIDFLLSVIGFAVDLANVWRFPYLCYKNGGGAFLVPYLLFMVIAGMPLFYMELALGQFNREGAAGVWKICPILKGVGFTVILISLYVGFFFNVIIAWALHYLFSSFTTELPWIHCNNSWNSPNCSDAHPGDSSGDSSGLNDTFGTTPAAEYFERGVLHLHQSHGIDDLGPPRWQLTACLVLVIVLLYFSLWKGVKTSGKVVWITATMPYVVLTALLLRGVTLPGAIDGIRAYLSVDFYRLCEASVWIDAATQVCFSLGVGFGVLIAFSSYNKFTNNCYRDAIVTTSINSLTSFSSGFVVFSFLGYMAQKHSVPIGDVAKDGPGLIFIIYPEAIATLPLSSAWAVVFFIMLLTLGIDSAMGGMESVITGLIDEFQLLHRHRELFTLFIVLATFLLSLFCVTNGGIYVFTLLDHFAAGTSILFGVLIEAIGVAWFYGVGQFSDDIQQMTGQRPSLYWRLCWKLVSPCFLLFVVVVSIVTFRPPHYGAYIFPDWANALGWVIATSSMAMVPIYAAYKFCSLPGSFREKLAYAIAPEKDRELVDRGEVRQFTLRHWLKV

## CC(O)CN1[C@H](C)CN(CCSC(c2ccc(F)cc2)c2ccc(F)cc2)C[C@@H]1C (stereo partly drawn) [14a, 1-(4-(2-((Bis(4-fluorophenyl)methyl)thio)ethyl)-2,6-cis-dimethylpiperazin-1-yl)propan-2-ol]
DAT Y156F mutant
  Ki: 269 nM
σ1 receptor; σ1 versus DAT
  higher binding affinity at σ1 receptors than at DAT: ~ 4 fold
[1]
  metabolic stability (in words): moderate metabolic stability
[2]
  off-target interactions: no significant interactions
Mouse locomotion
  locomotor (ambulatory) activity, maximum distance traveled in 30 min: not significantly different than vehicle; also recorded: only moderate locomotor stimulation

## CCC(=O)N1CCN(CCSC(c2ccc(F)cc2)c2ccc(F)cc2)CC1 [11d, 1-(4-(2-((Bis(4-fluorophenyl)methyl)thio)ethyl)piperazin-1-yl)propan-1-one]
SERT
  selectivity for DAT over SERT (in words): equivalent
σ1 receptor
  selectivity for σ1R over DAT and SERT (in words): σ1R selective
DAT
  DAT Ki values (in words): low micromolar range

## C[C@@H]1CN(CC[S+]([O-])C(c2ccc(F)cc2)c2ccc(F)cc2)C[C@H](C)N1CC(O)Cc1ccccc1 (stereo partly drawn) [15b, 1-(4-(2-((Bis(4-fluorophenyl)methyl)sulfinyl)ethyl)-2,6-cis-dimethylpiperazin-1-yl)-3-phenylpropan-2-ol]
[3]
  phase I metabolic stability (in words): almost no compound present after 60 min
[2]
  off-target interactions: no significant interactions

## CC(O)CN1CCC2(CCN(CC[S+]([O-])C(c3ccc(F)cc3)c3ccc(F)cc3)CC2)C1 (stereo not shown) [compound 19, 1-(8-(2-((Bis(4-fluorophenyl)methyl)sulfinyl)ethyl)-2,8-diazaspiro[4.5]decan-2-yl)propan-2-ol]
SERT
  selectivity for DAT over SERT (in words): not selective for DAT over SERT; also recorded: equivalent
σ1 receptor
  selectivity for σ1R over DAT and SERT (in words): binding preference for σ1R

## O[C@@H](Cc1ccccc1)CN1CCN(CCSC(c2ccc(F)cc2)c2ccc(F)cc2)CC1 [8d, (S)-1-(4-(2-((Bis(4-fluorophenyl)methyl)thio)ethyl)piperazin-1-yl)-3-phenylpropan-2-ol]
[3]
  phase I metabolic stability (in words): almost no compound present after 60 min

## CC(=O)CN1CCN(CCSC(c2ccc(F)cc2)c2ccc(F)cc2)CC1 [8g, 1-(4-(2-((Bis(4-fluorophenyl)methyl)thio)ethyl)piperazin-1-yl)propan-2-one]
σ1 receptor
  selectivity for σ1R over DAT and SERT (in words): σ1R selective
DAT; 2-propanol oxidised to 2-propanone
  decrease of DAT affinity compared to 3a: ~ 5 fold

## [O-][S+](CCCN1CCN(CCCc2ccccc2)CC1)C(c1ccc(F)cc1)c1ccc(F)cc1 (stereo not shown) [12c, 1-(3-((Bis(4-fluorophenyl)methyl)sulfinyl)propyl)-4-(3-phenylpropyl)piperazine]
[3]
  phase I metabolic stability (in words): almost no compound present after 60 min

## CC(O)CN1[C@H](C)CN(CC[S+]([O-])C(c2ccc(F)cc2)c2ccc(F)cc2)C[C@@H]1C (stereo partly drawn) [15a, 1-(4-(2-((Bis(4-fluorophenyl)methyl)sulfinyl)ethyl)-2,6-cis-dimethylpiperazin-1-yl)propan-2-ol]
[3]
  compound remaining: 30–44%
[2]
  off-target interactions: no significant interactions
hERG
  hERG/DAT affinity ratio: 30

## CC(O)CN1CCN(CC[S+]([O-])C(c2ccc(F)cc2)c2ccc(F)cc2)CC1 (stereo not shown) [3b, 1-(4-(2-((bis(4-fluorophenyl)methyl)sulfinyl)ethyl)-piperazin-1-yl)-propan-2-ol, reference compound]
[2]
  off-target interactions: no significant interactions

## C[C@H](O)CN1CCN(CC[S+]([O-])C(c2ccc(F)cc2)c2ccc(F)cc2)CC1 (stereo partly drawn) [12a, (S)-1-(4-(2-((Bis(4-fluorophenyl)methyl)sulfinyl)ethyl)piperazin-1-yl)propan-2-ol]
[3]
  phase I metabolic stability (in words): exceptional and similar metabolic stability

## C[C@@H](O)CN1CCN(CC[S+]([O-])C(c2ccc(F)cc2)c2ccc(F)cc2)CC1 (stereo partly drawn) [12b, (R)-1-(4-(2-((Bis(4-fluorophenyl)methyl)sulfinyl)ethyl)piperazin-1-yl)propan-2-ol]
[3]
  phase I metabolic stability (in words): exceptional and similar metabolic stability

## 1-(4-(2-((Bis(4-fluorophenyl)methyl)thio)ethyl)piperazin-1-yl)-2-phenylethan-1-one [8f]
SERT
  selectivity for DAT over SERT (in words): equivalent
σ1 receptor
  selectivity for σ1R over DAT and SERT (in words): σ1R selective
DAT
  DAT Ki values (in words): low micromolar range

## O[C@H](Cc1ccccc1)CN1CCN(CCSC(c2ccc(F)cc2)c2ccc(F)cc2)CC1 [8e, (R)-1-(4-(2-((Bis(4-fluorophenyl)methyl)thio)ethyl)piperazin-1-yl)-3-phenylpropan-2-ol]
[3]
  phase I metabolic stability (in words): almost no compound present after 60 min

## CC(O)CN1CCN(CCSC(c2ccc(F)cc2)c2ccc(F)cc2)CC1 (stereo not shown) [3a, reference compound]
hERG
  hERG/DAT affinity ratio: 3

## OC(Cc1ccc(F)cc1)CN1CCN(CCSC(c2ccc(F)cc2)c2ccc(F)cc2)CC1 (stereo not shown) [8a, 1-(4-(2-((Bis(4-fluorophenyl)methyl)thio)ethyl)piperazin-1-yl)-3-(4-fluorophenyl)propan-2-ol]
[3]
  phase I metabolic stability (in words): almost no compound present after 60 min

## OC(CN1CCC2(CCN(CCSC(c3ccc(F)cc3)c3ccc(F)cc3)CC2)C1)c1ccccc1 (stereo not shown) [18b, 2-(8-(2-((Bis(4-fluorophenyl)methyl)thio)ethyl)-2,8-diazaspiro[4.5]decan-2-yl)-1-phenylethan-1-ol]
SERT
  selectivity for DAT over SERT (in words): not selective for DAT over SERT; also recorded: equivalent
σ1 receptor
  selectivity for σ1R over DAT and SERT (in words): binding preference for σ1R
[3]
  compound remaining: 30–44% and 44%
